PubChem BioAssay AID2060909 (Molecular Pharmacology Branch, DTP, NCI, 2025)
Each block holds one molecule with its values, some of them ahead of it.

Tested on: 362531-283-R-J2-PDC complex spheroid viability
Assay: Anticancer human tumor 362531-283-R-J2-PDC patient-derived colon adenocarcinoma cell line growth inhibition [RAS]
Conditions: for viability, T/C: stronger effect = lower value
In short: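 Agents were tested in combination matrices in half-log decrements from a top concentration at or near clinical Cmax (10 microM if undetermined). Targets were multi-cell spheroids of tumour lines plus HUVEC and MSC stromal cells.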
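Note: spheroids exposed to the agents for 7 days before readout.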
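Throughout, for viability, T/C: luminescence viability as percent of DMSO vehicle control wells.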

IC50 (curve of first compound, second compound 0.00316 µM): > 100 nM | IC50 (curve of first compound, second compound 0.01 µM): > 100 nM | IC50 (curve of first compound, second compound 0.0316 µM): > 100 nM | IC50 (curve of first compound, second compound 0.1 µM): > 100 nM | IC50 (curve of first compound, second compound 0.316 µM): > 100 nM | IC50 (curve of first compound, second compound 1 µM): > 100 nM
SMILES: CC(C)n1nc(-c2ccc3oc(N)nc3c2)c2c(N)ncnc21 + C=CC(=O)N1CCN(c2nc(OCC3CCCN3C)nc3c(F)c(-c4nc(N)cc(C)c4C(F)(F)F)c(Cl)cc23)C(C)C1
viability, T/C (second compound 0.00316 µM, first compound 0.000316 µM): 97.8% | viability, T/C (second compound 0.00316 µM, first compound 0.001 µM): 91.8% | viability, T/C (second compound 0.00316 µM, first compound 0.00316 µM): 101% | viability, T/C (second compound 0.00316 µM, first compound 0.01 µM): 89.2% | viability, T/C (second compound 0.00316 µM, first compound 0.0316 µM): 62.9% | viability, T/C (second compound 0.00316 µM, first compound 0.1 µM): 97.1% | viability, T/C (second compound 0.01 µM, first compound 0.000316 µM): 93.5% | viability, T/C (second compound 0.01 µM, first compound 0.001 µM): 92.2% | viability, T/C (second compound 0.01 µM, first compound 0.00316 µM): 105% | viability, T/C (second compound 0.01 µM, first compound 0.01 µM): 87.3% | viability, T/C (second compound 0.01 µM, first compound 0.0316 µM): 54.9% | viability, T/C (second compound 0.01 µM, first compound 0.1 µM): 89.7% | viability, T/C (second compound 0.0316 µM, first compound 0.000316 µM): 100% | viability, T/C (second compound 0.0316 µM, first compound 0.001 µM): 95.9% | viability, T/C (second compound 0.0316 µM, first compound 0.00316 µM): 102% | viability, T/C (second compound 0.0316 µM, first compound 0.01 µM): 80.7% | viability, T/C (second compound 0.0316 µM, first compound 0.0316 µM): 65.9% | viability, T/C (second compound 0.0316 µM, first compound 0.1 µM): 101% | viability, T/C (second compound 0.1 µM, first compound 0.000316 µM): 91.9% | viability, T/C (second compound 0.1 µM, first compound 0.001 µM): 93.1% | viability, T/C (second compound 0.1 µM, first compound 0.00316 µM): 99.6% | viability, T/C (second compound 0.1 µM, first compound 0.01 µM): 87% | viability, T/C (second compound 0.1 µM, first compound 0.0316 µM): 86.2% | viability, T/C (second compound 0.1 µM, first compound 0.1 µM): 64.5% | viability, T/C (second compound 0.316 µM, first compound 0.000316 µM): 107% | viability, T/C (second compound 0.316 µM, first compound 0.001 µM): 106% | viability, T/C (second compound 0.316 µM, first compound 0.00316 µM): 104% | viability, T/C (second compound 0.316 µM, first compound 0.01 µM): 106% | viability, T/C (second compound 0.316 µM, first compound 0.0316 µM): 68.2% | viability, T/C (second compound 0.316 µM, first compound 0.1 µM): 82.7% | viability, T/C (second compound 1 µM, first compound 0.000316 µM): 107% | viability, T/C (second compound 1 µM, first compound 0.001 µM): 105% | viability, T/C (second compound 1 µM, first compound 0.00316 µM): 97% | viability, T/C (second compound 1 µM, first compound 0.01 µM): 107% | viability, T/C (second compound 1 µM, first compound 0.0316 µM): 49.6% | viability, T/C (second compound 1 µM, first compound 0.1 µM): 81.5%

IC50 (compound alone, run of 07/09/2024): > 300 nM
SMILES: CCn1c(-c2cccnc2C(C)OC)c2c3cc(ccc31)N1CCOC(CC(NC(=O)C(C(C)C)N(C)C(=O)C3(F)CCN(C(=O)C#CC(C)(C)N(C)C)CC3)C(=O)N3CCCC(N3)C(=O)OCC(C)(C)C2)C1 (centres undefined)
viability, T/C (compound 0.000949 µM): 103% [middle of 8 runs] | viability, T/C (compound 0.003 µM): 102% [middle of 8 runs] | viability, T/C (compound 0.00949 µM): 107% [middle of 8 runs] | viability, T/C (compound 0.03 µM): 103% [middle of 8 runs] | viability, T/C (compound 0.0949 µM): 104% [middle of 8 runs] | viability, T/C (compound 0.3 µM): 100% [middle of 8 runs]
